Melting point data for 88 compounds are collected here from a melting point compilation (Tetko et al.; mined from patent text by program, amines drawn as free bases though some values may be those of a salt).

Each structure is given as a SMILES string.

On to `Cc1nnc(NC(=O)C(c2ccccc2)c2ccccc2)o1`, for which the melting point is 160 to 161 °C.

`CCc1cccc(C2(O)C3CC4CC(C3)CC2C4)c1` (stereo not drawn) registered a melting point of 63 to 65 °C.

Regarding `O=c1ncc(Cl)cn1CC(O)CCl` (stereo not drawn), the melting point was in the range of 159 to 162 °C.

On to `CCOC(=O)[C@H](Cc1ccc(Nc2nccc3ccncc23)cc1)NC1=C(Br)C(=O)C12CCCCC2`, for which the melting point lay within 192 to 195 °C.

Take `O=C(c1ccc(Cl)cc1)c1cccc(Br)n1`: the melting point fell in the range of 83.5 to 84 °C.

For `CNC(=O)c1cccc(NC(=O)Cc2cccc3sccc23)c1`, the melting point was determined as 192 °C.

Compound `COc1cc(N)c(Cl)cc1C(=O)NCC1(OC)CCN(CCCCCC(=O)c2ccccc2)CC1` had a melting point of 91 to 93 °C.

The compound `N#CNC(=NCCCOc1ccccc1)Nc1cncc(Br)c1` came in with a melting point of 129 to 130 °C.

Regarding `O=CNNc1ccccc1`, the melting point is 138 to 143 °C.

`O=c1[nH]c(=Cc2cccs2)c(=O)[nH]c1=Cc1ccc2ccccc2n1` showed a melting point of 288 to 289 °C.

As to `CN(C)S(=O)(=O)c1cn(C)c2cc(C(F)(F)F)ccc2c1=O`, the melting point fell in the range of 221 to 223 °C.

In turn, `CCOC(=O)c1nn(-c2ccc([N+](=O)[O-])cc2)c2c1CCCC2` registered a melting point of 173 °C.

Consider `Cc1cccc(N=c2scc(-c3ccc(Cl)c(S(=O)(=O)N(C)C)c3)n2C)c1C`, for which the melting point is 226 °C.

The compound `COC(=O)C(=O)c1ccc(OCC#Cc2ccccc2)cc1` yielded a melting point of 57 to 59 °C.

As for `CCCCCCCOc1ccc(CCC(CO)(CCO)NC(=O)c2cc([N+](=O)[O-])cc([N+](=O)[O-])c2)cc1` (single isomer, unassigned; (+)), the melting point is 78 to 79 °C.

Compound `CCCN(CCC)c1nc2c(N3CCCCCC3)nc(N3CCOCC3)cc2c(=O)[nH]1` yielded a melting point of 250 °C.

`CCCc1nc(N)nc(N)c1N1CCN(c2ccc(C(=O)N[C@@H](CCC(=O)OCC)C(=O)OCC)cc2)CC1` returned a melting point of 175 to 180 °C.

As to `Nc1c(-c2ccc(Cl)cc2)sc2ccccc12`, the melting point was in the range of 152 to 154 °C.

The compound `CN(C(=N)N)c1nccc(Oc2ccc(NC(=O)c3cc(F)cc(N4CCOCC4)c3)c3ccccc23)n1` had a melting point of 155 to 157 °C.

`CCOC(=O)c1nn(-c2ccc(Cl)cc2)c2c1CCC2` had a melting point of 122 to 123 °C.

`CCCCOc1c(CNC(=O)OC(C)(C)C)n(CC(C)C)c(=O)c2ccc(CO)cc12` registered a melting point of 153 to 154 °C.

Compound `Cc1c(CC(=O)O)c2cc(O)ccc2n1C(=O)c1ccc(F)c(F)c1` returned a melting point of 143 to 145 °C.

`OC/C(=C(\CO)c1ccccc1)c1ccccc1` had a melting point of 79 °C.

As to `CNC1CCN(c2c(F)cc3c(=O)c(C(=O)O)cn(C4COC4)c3c2F)C1` (stereo not drawn), the melting point lay in the range of 252 to 255 °C.

For `COc1ccccc1C1(NCCC(=O)OC(C)(C)C)C(=O)Nc2ccc(Cl)cc21` (stereo not drawn), the melting point came out at 170 °C.

`O=C(O)c1cccc(CC2COc3cc(OCc4ccc5ccccc5n4)ccc3C2O)c1` (stereo not drawn) displayed a melting point of 165 to 168 °C.

As to `Cc1cccc2c1C(=O)C(COC(=O)Nc1ccccc1)(COC(=O)Nc1ccccc1)CS2=O` (stereo not drawn), the melting point lay within 76 to 82 °C.

Take `NNCCCCS(=O)(=O)O`: the melting point fell in the range of 152 to 154 °C.

Consider `COc1cc(OC)nc(OC(C(=O)N[C@@H](C)C(=O)O)C(C)C)n1` (stereo partly drawn), for which the melting point was in the range of 157 to 160 °C.

As to `Cc1csc(Nc2cc3ccccc3cn2)n1`, the melting point was in the range of 212 to 215 °C.

Turning to `O=[N+]([O-])c1c(-c2c(C(F)(F)F)[nH]c(-c3ccc(Cl)cc3)c2[N+](=O)[O-])csc1Br`, the melting point was 186 to 190 °C.

`CS(=O)(=O)c1ccc(-c2cnn(CC(F)(F)F)c(=O)c2-c2ccc(Cl)c(F)c2)cc1` came in with a melting point of 174 to 175 °C.

Compound `N#CC1=C(N)CCN(C(=O)c2ccccc2)C1` registered a melting point of 178 to 181 °C.

With `CC(C)(C)CC(=O)N1C[C@@H](c2c[nH]c3ccccc23)[C@H](c2cn3c4c(cccc24)CCC3)C1`, the melting point lay within 202 to 204 °C.

As to `CC1OC(Cn2cncn2)(c2ccc(F)cc2F)C1(C)C` (stereo not drawn), the melting point fell in the range of 112 to 113 °C.

`CCCN(O)CCc1ccc2c(c1)C(=O)c1ccccc1CO2` displayed a melting point of 121 to 124 °C.

`CCOc1cc(N(CC)CC)ccc1C1(c2ccc(N(C)C)cc2N(C)C)OC(=O)c2ccccc21` (stereo not drawn): the melting point is 146 to 150 °C.

Regarding `O=C(Cn1c(-c2ccc(Cl)cc2)nc2cccnc21)NC1CCCCC1`, the melting point lay in the range of 240 to 241 °C.

Turning to `NC(CCCc1ccccc1)C(=O)O` (stereo not drawn), the melting point lay within 213 to 215 °C.

Regarding `O=C(O)CC1COc2ccccc2O1` (stereo not drawn), the melting point came out at 95 °C.

Take `CCOC(=O)CC(c1ccccc1)c1ccc(NC(=O)NCCCl)cc1` (stereo not drawn): the melting point lay in the range of 109 to 111 °C.

Turning to `CCCc1c(OCCCCCCCC(=O)O)ccc(C(C)=O)c1O`, the melting point was 73 to 76 °C.

`COC(=O)c1ccc(-c2ccc(-c3ccc4c(c3)C(C)(C)CCC4(C)C)[nH]2)cc1` displayed a melting point of 176 to 179 °C.

For `Cn1c(CO)ncc(OCc2ccccc2)c1=O`, the melting point fell in the range of 83 to 84 °C.

The compound `CS(=O)(=O)Nc1cc([N+](=O)[O-])ccc1OC1CCCCC1` yielded a melting point of 105 to 106 °C.

As for `O=C1CCc2c1cccc2C(=O)c1ccc(Cl)cc1`, the melting point stood at 146 °C.

`Cc1cccc(-c2nccc3nc(N)nn23)c1` came in with a melting point of 125 to 126 °C.

`CCCCCCCCCCCCCCCCCCOc1ccc(O)c(C(=O)N(CC(=O)O)CC(=O)O)c1` registered a melting point of 128 to 132 °C.

In the case of `O=c1[nH]c(NCCc2c[nH]cn2)nc2c1ncn2C1CC(O)C(CO)O1` (stereo not drawn), the melting point lay in the range of 220 to 222 °C.

As to `Cc1nc2cccc3n(CCCCCCNS(=O)(=O)CC(F)(F)F)c(=O)c1n23`, the melting point was in the range of 141 to 143 °C.

`COC(=O)c1c[nH]c(C(=O)c2ccc(C)cc2)c1` showed a melting point of 155 to 159 °C.

On to `CCOc1cc(C(CC#N)N2Cc3c(Cl)ccc(NC(=O)C4CC4)c3C2=O)ccc1OC` (stereo not drawn), for which the melting point was 200 to 202 °C.

As for `CC(C)(C)C(=O)Nc1nc(O)c2cc(C#Cc3ccc(C(=O)O)cc3)cnc2n1`, the melting point is over 250 °C.

Consider `COc1ccc(C2C3=C(COC3=O)Nc3ccc4ncsc4c32)cc1O` (stereo not drawn), for which the melting point fell in the range of 327 to 329 °C.

As for `CCOC(=O)[C@@H](NS(=O)(=O)c1ccc(N2CCC(=O)CC2)cc1)C(C)C`, the melting point lay within 77 to 80 °C.

For the compound `CC(C)(CCCCCCCCCCC(C)(C)C(Cl)C(=O)O)C(Cl)C(=O)O` (stereo not drawn), the melting point was 103 to 112 °C.

In turn, `CN1CCNC(c2ccccc2)c2cc(Cl)ccc21` (stereo not drawn) came in with a melting point of 66 to 68 °C.

The compound `c1ccc(-c2ccc(Nc3nc4ccccc4o3)cc2)cc1` had a melting point of 213 to 214 °C.

On to `Cc1cccc(-c2ccnc3c(C(=O)N=CN(C)C)cnn23)c1`, for which the melting point lay in the range of 165 to 166 °C.

Compound `CC(C)(C)Nc1nc(C(F)(F)F)c(C(=O)Cl)o1` showed a melting point of 52 to 60 °C.

In the case of `CCCCCCCCCCOc1ccc(C(O)C(O)c2ccc(C(=O)OC)cc2)nc1CCC(=O)OC` (mixture of isomers), the melting point fell in the range of 88 to 92 °C.

Regarding `Cc1cc(F)ccc1-c1cc(NCCNC(=O)NC2CCCCC2)nc2c1C=NC(=O)C2c1c(F)cccc1F` (stereo not drawn), the melting point was in the range of 178 to 183 °C.

Take `CCOC(=O)c1ccc(OCC2CCN(C(=O)OC(C)(C)C)CC2)c(OC)c1`: the melting point was in the range of 81 to 83 °C.

Take `COc1cc(C(=O)C=Cc2ccncc2)cc(OC)c1OC`: the melting point fell in the range of 127 to 129 °C.

As to `Fc1ccc(-c2nc3occn3c2-c2ccnc(N[C@H]3CN4CCC3CC4)n2)cc1`, the melting point is 217 to 218 °C.

As to `Cc1nnc2cnc(-c3ccccc3)cn12`, the melting point is 192 to 195 °C.

As to `CC(C)(C)NC(=O)[C@@H]1C[C@H](Cl)CN1C(=O)[C@@H](O)[C@@H](N)Cc1ccccc1`, the melting point lay within 126 to 130 °C.

`O=C1NCCN1C1CCN(CC(O)COc2cccnc2Cl)CC1` (stereo not drawn): the melting point was 163 to 166 °C.

With `CC1(C)Oc2ccc(S(=O)(=O)c3ccc(C#N)cc3)cc2C(O)C1Br` (stereo not drawn), the melting point was 157 to 158 °C.

For `CC(=O)OC=C1CSC2C(NC(=O)Cc3ccccc3)C(=O)N2C1C(=O)OC(C)(C)C` (stereo not drawn), the melting point was in the range of 178 to 183 °C.

Compound `O=C(O)CCC(=NOCc1ccc(OCc2ccc3ccccc3n2)cc1)c1ccccc1` displayed a melting point of 133 to 134 °C.

Take `C[C@@H](S[C@H]1CO[C@H](c2ccc(C(=O)NCc3ccc(C#N)cc3)cc2)OC1)[C@](O)(Cn1cncn1)c1ccc(F)cc1F`: the melting point amounted to 188 °C.

In turn, `COc1c(NC(=O)c2cc3cccc(NC(=O)c4ccc(N)nc4)c3s2)cc(C(C)(C)C)cc1NS(C)(=O)=O` returned a melting point of 234 to 235 °C.

In turn, `COc1ccc(CCNC(=S)c2ccccc2C)cc1OC` displayed a melting point of 94 to 95 °C.

As to `CCc1nc(C)cn1C(=O)c1c(Cl)cccc1Cl`, the melting point is 112 to 114 °C.

On to `CC1(C)CCC(C)(C)c2cc(-c3cc(-c4ccc(C(=O)NO)cc4)ccc3-c3ccccc3)ccc21`, for which the melting point is 105 to 108 °C.

Consider `O=C1NC(=O)C(c2cccc3ccccc23)O1` (stereo not drawn), for which the melting point lay within 188 to 189 °C.

`Cc1c(NC(=O)CC(C)(C)C)c(C)c2c(c1-c1cccc(N)n1)OCC2c1ccc(C(C)C)cc1` (stereo not drawn) showed a melting point of 237 to 239 °C.

For the compound `CCOC(=O)C(=Cc1cccn2cc(-c3cccc(OC)c3)nc12)N=[N+]=[N-]`, the melting point is 109 to 111 °C.

Compound `COC(=O)c1ccc(-c2nc3c(O)cccc3s2)cc1` had a melting point of 215 to 219 °C.

On to `N#CC(c1ccccc1)(c1ccccc1)[C@H]1CCCN(CCc2ccccc2)C1`, for which the melting point was in the range of 134 to 138 °C.

For `COc1ccc(C(=O)c2cc(Br)ccc2NC(=O)C(F)(F)F)cc1`, the melting point is 149 °C.

`Oc1ccc(Cl)cc1C(O)(c1ccccc1)C1CCCCC1` (stereo not drawn) yielded a melting point of 170 °C.

`Brc1ccc2c(c1)C1(c3ccccc3-c3ccccc31)c1ccccc1-2` had a melting point of 181 to 183 °C.

Turning to `Nc1c(Cl)cc2nc(O)c(O)nc2c1[N+](=O)[O-]`, the melting point was over 300 °C.

As for `COCCc1nc2c(N)nc3ccccc3c2n1CC1(O)CCOCC1`, the melting point lay in the range of 205 to 206 °C.

The compound `CCOc1c2ccccc2nc2c1c(C)nn2-c1ccccn1` showed a melting point of 121 to 123 °C.

The compound `Cc1ccc2nc(/C=C/c3ccccc3)n(-c3ccccn3)c2c1` yielded a melting point of 164 to 165 °C.

For orientation: melting point means the temperature, or range, at which the solid turns liquid.
